{"source": "patent US11724998B2", "about": "“PXR agonists and uses thereof for gut barrier dysfunction treatment and prevention” (Albert Einstein College of Medicine, priority 2017, dated 2023)", "key": {"RXR": {"test_system": "RXR", "assay": "RXR ligand displacement (radiolabeled 9-cis-retinoic acid)", "assay_type": "binding", "conditions": "displacement of radiolabeled 9-cis-retinoic acid", "protocol": "(§1) FIG. 6A-6E. Activation and inhibition studies with different FKK compounds. (A) PXR activation, LS180 cells (upper), and PXR inhibition, LS180 cells, co-incubation with RIF (lower). (B) AhR activation, AZ-AHR cells (upper), and AhR inhibition, AZ-AHR cells, co-incubation with TCDD (lower). (C) GR activation, AZ-GR cells (upper), and VDR activation, IZ-VDRE cells (lower). (D) TR activation, PZ-GR cells (upper), and AR activation, AIZ-AR cells (lower). (E) Displacement of radiolabeled 9-cis-retinoic acid (RA) by FKK compounds.\n(§2) All the synthesized compounds and intermediates were tested for their potential to activate PXR and/or AhR via luciferase assays. The PXR activation assays were performed by co-transfecting full-length expressing human PXR plasmid (91) and p3A4 luciferase reporter (92) in LS180 or Caco-2 cells. AhR activation conducted using stably co-transfected HepG2 reporter cells as previously described (93). […] With the exception of FKK6, there was no significant inhibition of TCDD-induced AhR activation. […] Independent verification of AhR activity of randomly selected compounds—FKK 5, 6 and 9—was performed in a separate laboratory (GHP). Nuclear receptor selectivity was assessed for FKK compounds for GR, ADR, TR and AR using cell-based luciferase assays previously described (93-102). […]"}, "AhR": {"target": "T1, AhR (Homo sapiens, UniProt P35869)", "T1 sequence (P35869 11-848)": "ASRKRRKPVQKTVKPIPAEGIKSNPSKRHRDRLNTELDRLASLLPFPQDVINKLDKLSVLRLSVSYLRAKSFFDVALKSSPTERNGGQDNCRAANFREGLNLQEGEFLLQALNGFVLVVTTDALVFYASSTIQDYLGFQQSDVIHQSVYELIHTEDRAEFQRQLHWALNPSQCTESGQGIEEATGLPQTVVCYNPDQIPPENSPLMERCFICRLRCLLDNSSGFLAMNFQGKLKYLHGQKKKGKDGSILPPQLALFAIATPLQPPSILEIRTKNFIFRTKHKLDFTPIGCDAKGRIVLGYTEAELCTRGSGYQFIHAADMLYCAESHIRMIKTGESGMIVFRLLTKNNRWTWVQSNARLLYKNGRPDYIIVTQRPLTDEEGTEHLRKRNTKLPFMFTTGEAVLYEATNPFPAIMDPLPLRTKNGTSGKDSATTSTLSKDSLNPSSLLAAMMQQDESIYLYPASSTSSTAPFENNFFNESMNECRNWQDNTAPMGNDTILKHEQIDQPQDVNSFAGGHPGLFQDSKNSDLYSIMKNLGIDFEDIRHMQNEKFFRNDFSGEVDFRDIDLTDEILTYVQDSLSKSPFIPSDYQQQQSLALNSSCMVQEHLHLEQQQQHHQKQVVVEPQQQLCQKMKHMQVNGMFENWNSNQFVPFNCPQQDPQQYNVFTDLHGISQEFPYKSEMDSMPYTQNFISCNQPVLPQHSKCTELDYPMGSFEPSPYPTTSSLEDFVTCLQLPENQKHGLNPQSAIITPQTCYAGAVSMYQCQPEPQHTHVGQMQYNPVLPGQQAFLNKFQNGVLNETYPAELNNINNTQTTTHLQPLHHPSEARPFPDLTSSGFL", "assay": "AhR activation, AZ-AHR (stably co-transfected HepG2) reporter cells", "assay_type": "cell-based", "set-up": "endogenous in cells; host or cells: AZ-AHR (HepG2)", "conditions": "to a much lesser extent than FKK 2 and 9; FIG. 6B", "protocol": "as §1\nAll the synthesized compounds and intermediates were tested for their potential to activate PXR and/or AhR via luciferase assays. The PXR activation assays were performed by co-transfecting full-length expressing human PXR plasmid (91) and p3A4 luciferase reporter (92) in LS180 or Caco-2 cells. AhR activation conducted using stably co-transfected HepG2 reporter cells as previously described (93). […] With the exception of FKK6, there was no significant inhibition of TCDD-induced AhR activation. […] Independent verification of AhR activity of randomly selected compounds—FKK 5, 6 and 9—was performed in a separate laboratory (GHP). Nuclear receptor selectivity was assessed for FKK compounds for GR, ADR, TR and AR using cell-based luciferase assays previously described (93-102). There was no observed biologically significant (>2-fold) induction of nuclear receptor activity (FIG. 6C). RXR ligand displacement is only significant for FKK1 and FKK8 (FIG. 6D)."}, "PXR": {"target": "T2, PXR (Homo sapiens, UniProt O75469)", "T2 sequence (O75469 1-434)": "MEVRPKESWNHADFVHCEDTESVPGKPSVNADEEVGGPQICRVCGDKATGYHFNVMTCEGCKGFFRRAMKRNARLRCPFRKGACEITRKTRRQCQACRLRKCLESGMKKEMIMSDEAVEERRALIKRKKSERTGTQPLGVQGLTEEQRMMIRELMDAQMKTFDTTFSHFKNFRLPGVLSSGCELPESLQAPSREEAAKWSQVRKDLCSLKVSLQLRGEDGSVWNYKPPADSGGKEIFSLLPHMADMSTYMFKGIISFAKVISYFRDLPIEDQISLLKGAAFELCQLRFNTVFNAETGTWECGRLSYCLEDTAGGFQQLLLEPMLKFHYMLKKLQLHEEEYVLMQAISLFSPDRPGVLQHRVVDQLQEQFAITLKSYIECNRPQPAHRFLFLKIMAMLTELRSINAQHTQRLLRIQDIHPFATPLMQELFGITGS", "assay": "PXR inhibition, LS180 cells, co-incubation with RIF", "assay_type": "cell-based", "set-up": "co-transfecting full-length expressing human PXR plasmid (91) and p3A4 luciferase reporter (92) in LS180 or Caco-2 cells; expressed in transfected cells; host or cells: LS180", "conditions": "FIG. 6A", "protocol": "as §1, §2"}, "[1]": {"test_system": "PXR target genes (CYP3A4, MDR1)", "conditions": "human"}}, "data": [{"smiles": "O=S(=O)(c1ccccc1)n1c(C(O)Cc2cc3ccccc3[nH]2)cc2ccccc21", "note": "(stereo not shown) [FKK8]", "values": [{"measurement": "RXR ligand displacement", "setting": "RXR", "result": "significant"}, {"measurement": "AhR activation profile", "setting": "AhR", "result": "variable degrees of dose-dependent AhR activation"}, {"measurement": "rifampicin-dependent PXR antagonism (inhibition)", "setting": "PXR", "result": "rifampicin-dependent PXR antagonism (inhibition)"}, {"measurement": "CYP3A4 mRNA induction", "setting": "[1]", "result": 1.5, "unit": "fold"}]}]}
